Consider two molecules from patent US7015323B2, “Thiocarbamate inhibitors of alpha-4 integrins” (Genentech, Inc., priority 2003, dated 2006).

The data set can be described thus: Clearance and half life: pharmacokinetics after IV or PO dosing, plasma measured by LC/MS/MS. The class given is in vivo. The following applies: rat; for clearance: clearance from plasma levels (LC/MS/MS, WinNonlin), PEG 400 formulation, route for the table values not stated; for half-life: half life from plasma levels (LC/MS/MS, WinNonlin), route not stated. How it is done: Jugular Vein Cannulation—Animals are anesthetized via IP injection using Ketamine/Xylazine/saline solution (@ 0.25 mL/kg). Animals are weighed prior to dosing of anesthetic to determine proper dosage. Sterile instruments and aseptic technique are used throughout surgery. This includes wearing a mask, clean lab coat or scrubs and sterile gloves. The ventral and dorsal neck areas are shaved and prepped with betadine and alcohol. A small skin incision is made over the jugular vein. Using blunt dissection techniques, free the intended vessel from surrounding tissue and thread two sutures under the vein. Tie the cranial suture, nick the vessel, insert the catheter, and use the distal suture to secure the catheter. Dissect a subcutaneous passage between the catheter insertion point and the intrascapular space; make a small exit hole at the nape of the neck. Then, using hemastats, pull the cannula through the passage to the dorsal neck area. Confirm that the catheter is still properly placed, flush with appropriate heparin/saline solution, and knot the distal end of the cannula. Place a suture tie around the knot, coil the cannula under the skin and close the dorsal incision, leaving the “tie” slightly exposed for ease of externalizing the catheter. Close the ventral incision. The animal should be recovered on a circulating heating blanket or equivalent and returned to its room when it's able to right itself.
Compounds are formulated with polyethylene glycol 400 (PEG) at 30% (IV) or 60% (PO).
Intravenous (IV) dosing is accomplished with a bolus injection into a lateral tail vein. Animals are restrained using a rat restrainer to minimize mis-dosings and to reduce animal stress. Individual doses are calculated based on body weights taken the morning of the dose. Oral (PO) dosing is accomplished by oral gavage using a 3½ inch stainless steel animal feeding tube. Animals are restrained by grasping gently with our hands to reduce animal stress. Individual doses are calculated based on body weights taken the morning of the dose.
Blood (approximately 0.2 mL) is collected from an jugular cannula. For occasions when the jugular cannula fails, blood is removed from the remaining lateral tail vein. The whole blood was placed into Microtainer® tubes containing K2EDTA anticoagulant. Samples are inverted several times to ensure proper mixing with anticoagulant and are stored on ice until centrifugation. Samples are centrifuged at 10,000×g for 5 minutes and plasma is transferred to 1.5 mL microcentrifuge tube. […]
All plasma samples are measured by LC/MS/MS. All pharmacokinetic parameters, clearance (CL), half life (t½), area under curve (AUC) and maximum conc (Cmax) are determined using WinNonin (version 3.2).

For `O=C(N[C@@H](Cc1ccc(OC(=O)N2CCOCC2)cc1)C(=O)O)c1ccccc1Cl` [referencecarbamate], the clearance came to 50 mL/min/kg and the half-life worked out at 6 min.

`O=C(N[C@@H](Cc1ccc(OC(=S)N2CCOCC2)cc1)C(=O)O)c1ccccc1Cl` [compound 1] had a clearance of 23 mL/min/kg and a half-life of 61 min.

By half-life is commonly meant the time in which the quantity being followed falls by half. Lower therefore signals fast loss.
